This note sets out measurements from paper PMC11181081 (Proceedings of the National Academy of Sciences of the …, 2024).

The subject of assay [1] is ER-regulated genes PGR, GREB1, TFF1/pS2. Briefly: qPCR of ER target genes in MCF-7 cells. As to conditions: MCF-7 in normal FBS-containing media, ~1 pM E2. Type of assay: cell-based.
A further assay concerns Greb1 expression. Briefly: Greb1 qPCR in primary myotubes. Format: cell-based, mouse. As to conditions: steroid-free conditions, 24 h.
Assay [2] concerns primary female mouse myotubes. Briefly: Primary myotube size by high-content imaging. Type of assay: cell-based. Particulars: 50 pM, 5 d.
In the next assay the test system is MCF-7 WT cells. The assay can be described thus: Cell proliferation assay, MCF-7 WT. As to conditions: MCF-7 with ER-WT, charcoal-stripped FBS, 5 d.

As to `C[C@]12CC[C@@H]3c4ccc(O)cc4CC[C@H]3[C@@H]1CC[C@@H]2O` [Compound E2, 17β-estradiol], the “Gene expression profile in full media (in words)” value in assay [1] was “less induction of gene expression”. The “Greb1 expression dose response (in words)” value in the assay with Greb1 expression is recorded as “biphasic with an inflection point below the ligand Kd”. Moreover, the “Myotube diameter / tube area (in words)” value in assay [2] is on record as “maintained primary myotube diameter”. Besides, the “Effect on proliferation (activity profile, in words)” value in the assay on MCF-7 WT cells was “induced cell growth at doses 2 logs below the Kd”.
